Assay results from paper PMC8450399, “Expression Profiles and Functional Characterization of Chemosensory Protein 15 (HhalCSP15) in the Brown Marmorated Stink Bug Halyomorpha halys” (Frontiers in Physiology, 2021).

Key:
HhalCSP15 = experiment: Fluorescence competitive binding assay with 1-NPN as fluorescent probe; set-up: species or system Halyomorpha halys; details: for Ki: Ki=IC50/(1+[1-NPN]/K1-NPN), HhalCSP15 and 1-NPN 2 μM, pH 7.4, triplicate, read-out: Ki, dissociation constant; for binding ability with HhalCSP15 (in words): fluorescence binding experiments
Description: The binding abilities of HhalCSP15 to 43 volatiles were measured on an F-380 fluorescence spectrophotometer (Tianjin, China) using 10-nm slits and a 1-cm light path. As the fluorescent probe, N-phenyl-1-naphthylamine (1-NPN) was excited at the wavelength of 337nm, and emission spectra were recorded between 390 and 530nm. To measure the affinity of 1-NPN to the HhalCSP15 protein, a 2-μM solution of purified protein in 50-mM Tris-HCl at pH 7.4 was titrated with aliquots of 1-mM 1-NPN dissolved in methanol to final concentrations ranging from 2 to 16μM.
[…] Dissociation constants of the competitors were calculated by the equation Ki=IC50/(1+[1-NPN]/K1-NPN), where IC50 is the concentration of ligands halving the initial fluorescence value of 1-NPN, [1-NPN] is the free concentration of 1-NPN, and K1-NPN is the dissociation constant of the HhalCSP15/1-NPN complex.

[1] = system: Halyomorpha halys antennae; experiment: Electroantennography (EAG) recordings; details: 10 μl of 100 μg/μl in paraffin oil; for EAG response of antennae (in words; comparison among nymphs, females, males): third instar nymphs and 1- to 3-day old male and female adults, solvent-corrected
Description: The antennal responses of H. halys to the three ligands of […]15 were evaluated using conventional EAG methods as described in previous study ([Wang et al., 2020]). Briefly, antennae of the third instar nymphs and 1- to 3-day old male and female adults were dissected, and a few terminal segments at the distal end were excised. The treated antennae were attached to electrode holders with electrode gel. Ten microliters of tested chemicals (100μg/μl, diluted in paraffin oil) were applied to filter paper strips (1.0cm×2.0cm) and inserted into a glass Pasteur pipette as a cartridge. The test cartridge was connected to a stimulus controller (CS-55; Syntech, Kirchzarten, Germany) that generated a 0.5s stimulus at 30s intervals, with a constant flow of 10ml/s. The signals generated by the antennae were recorded using EAG Pro (Syntech). A blank stimulus (solvent control) was presented before testing the compound. For each compound, EAG responses were recorded from eight antennae of different insects. The EAG responses elicited by the test odor stimuli were corrected by subtracting EAG response from the solvent control. The corrected EAG data were statistically analyzed using ANOVA followed by Tukey's HSD test.

SMILES: c1ccc(Nc2cccc3ccccc23)cc1 [1-NPN, N-phenyl-1-naphthylamine, reference compound]
- Kd (HhalCSP15; 2 μM protein in 50 mM Tris-HCl pH 7.4 titrated with 1-NPN 2 to 16 μM, read-out: dissociation constant of the HhalCSP15/1-NPN complex): 9.36 µM

SMILES: CCC\C=C/C=C/C=C/C(=O)OC [Methyl (2E,4E,6Z)-decatrienoate]
- Ki (HhalCSP15): 9.6 ± 0.4 µM
- binding ability with HhalCSP15 (in words) (HhalCSP15): identified as a binding ligand
- EAG response of antennae (in words; comparison among nymphs, females, males) [1]: significantly greater EAG responses in adults compared with nymphs

SMILES: CCCCCCCCCCCCC [Tridecane]
- binding ability with HhalCSP15 (in words) (HhalCSP15): could not bind

SMILES: CC/C=C\CCOC(=O)c1ccccc1 [cis-3-Hexen-1-yl benzoate]
- Ki (HhalCSP15): 10.5 ± 0.8 µM
- binding ability with HhalCSP15 (in words) (HhalCSP15): strong binding abilities
- EAG response compared among ligands (in words) ([1]; nymphs and adults): highest EAG response among all ligands in both nymphs and adults
- EAG response of antennae (in words; comparison among nymphs, females, males) ([1]; listed as Cis-3-hexen-1-yl benzoate): significantly greater responses in females compared with males and nymphs
- EAG response of antennae (in words; comparison among nymphs, females, males) ([1]; listed as cis-3-hexen-1-yl benzoate): elicit an EAG response in both nymph and adult H. halys antennae

SMILES: CCCCCCC/C=C/C=O [trans-2-Decenal]
- binding ability with HhalCSP15 (in words) (HhalCSP15): could not bind

SMILES: CC(=O)/C=C/C1=C(C)CCCC1(C)C [β-Ionone]
- Ki (HhalCSP15): 11.9 ± 0.6 µM
- binding ability with HhalCSP15 (in words) (HhalCSP15): strong binding abilities
- EAG response of antennae (in words; comparison among nymphs, females, males) [1]: elicit an EAG response in both nymph and adult H. halys antennae
- EAG response of antennae (in words; comparison among nymphs, females, males) ([1]; listed as β-ionone): significantly greater responses in females compared with males and nymphs
